According to PubChem BioAssay AID248 (DTP/NCI, 2004):
Where “and” joins values, the source holds several entries; their conditions need not be identical. Equal values may be shown once. Toxic doses and inconclusive results are not listed.

Tested on: L1210 leukemia ip in BDF1 mice, survival T/C
Test: NCI In Vivo Anticancer Drug Screen. Data for tumor model L1210 Leukemia (intraperitoneal) in B6D2F1 (BDF1) mice
Settings: endpoint: mean survival time, higher = longer survival
Summary of the method: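 Transplanted-tumor mice were given test agent; controls received vehicle only. Survival readings from the two groups were divided (treated over control).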

[1] = dose: 100.0 mg/kg/injection, schedule: Q01DX001 (ip), vehicle: Klucel (hydroxypropylcellulose) (HPC)
[2] = dose: 100.0 mg/kg/injection, schedule: Q01DX009 (ip), vehicle: Klucel (hydroxypropylcellulose) (HPC)
[3] = dose: 200.0 mg/kg/injection, schedule: Q01DX009 (ip), vehicle: Klucel (hydroxypropylcellulose) (HPC)

## CCCNC(=O)Sc1ccc(C(C)(C)C)cc1
dose: 25.0 mg/kg/injection, schedule: Q01DX001 (ip), vehicle: Klucel (hydroxypropylcellulose) (HPC)
  T/C: 91 % of control
dose: 25.0 mg/kg/injection, schedule: Q01DX009 (ip), vehicle: Klucel (hydroxypropylcellulose) (HPC)
  T/C: 95 % of control and 104 % of control
dose: 50.0 mg/kg/injection, schedule: Q01DX001 (ip), vehicle: Klucel (hydroxypropylcellulose) (HPC)
  T/C: 91 % of control
dose: 50.0 mg/kg/injection, schedule: Q01DX009 (ip), vehicle: Klucel (hydroxypropylcellulose) (HPC)
  T/C: 98 % of control and 112 % of control
[1]
  T/C: 93 % of control
[2]
  T/C: 93 % of control and 102 % of control and 104 % of control
dose: 100.0 mg/kg/injection, schedule: Q04DX002 (ip), vehicle: Klucel (hydroxypropylcellulose) (HPC)
  T/C: 95 % of control and 89 % of control
dose: 200.0 mg/kg/injection, schedule: Q04DX002 (ip), vehicle: Klucel (hydroxypropylcellulose) (HPC)
  T/C: 96 % of control and 97 % of control
dose: 400.0 mg/kg/injection, schedule: Q04DX002 (ip), vehicle: Klucel (hydroxypropylcellulose) (HPC)
  T/C: 92 % of control and 93 % of control

## O=C(/C=C/c1cccc([N+](=O)[O-])c1)NCCBr
[2]
  T/C: 101 % of control
dose: 100.0 mg/kg/injection, schedule: Q04DX003 (ip), vehicle: Klucel (hydroxypropylcellulose) (HPC)
  T/C: 95 % of control
[3]
  T/C: 101 % of control
dose: 200.0 mg/kg/injection, schedule: Q04DX003 (ip), vehicle: Klucel (hydroxypropylcellulose) (HPC)
  T/C: 97 % of control
dose: 400.0 mg/kg/injection, schedule: Q04DX003 (ip), vehicle: Klucel (hydroxypropylcellulose) (HPC)
  T/C: 95 % of control

## C#CC(C)(O)c1ccccc1 (stereo not drawn)
[2]
  T/C: 98 % of control
[3]
  T/C: 98 % of control

## CC(CO)(CI)[n+]1ccccc1 (stereo not drawn)
dose: 25.0 mg/kg/injection, schedule: Q01DX009 (ip), vehicle: saline with Tween-80
  T/C: 100 % of control
dose: 50.0 mg/kg/injection, schedule: Q01DX009 (ip), vehicle: saline with Tween-80
  T/C: 94 % of control
dose: 100.0 mg/kg/injection, schedule: Q01DX009 (ip), vehicle: saline with Tween-80
  T/C: 103 % of control
dose: 100.0 mg/kg/injection, schedule: Q04DX003 (ip), vehicle: saline with Tween-80
  T/C: 106 % of control

## O=C(c1ccc([N+](=O)[O-])cc1)c1ccc(O)cc1O
dose: 100.0 mg/kg/injection, schedule: Q01DX001 (ip), vehicle: other
  T/C: 101 % of control
dose: 100.0 mg/kg/injection, schedule: Q04DX003 (ip), vehicle: other
  T/C: 100 % of control
dose: 200.0 mg/kg/injection, schedule: Q01DX001 (ip), vehicle: other
  T/C: 101 % of control
dose: 200.0 mg/kg/injection, schedule: Q04DX003 (ip), vehicle: other
  T/C: 101 % of control
dose: 400.0 mg/kg/injection, schedule: Q01DX001 (ip), vehicle: other
  T/C: 103 % of control
dose: 400.0 mg/kg/injection, schedule: Q04DX003 (ip), vehicle: other
  T/C: 97 % of control

## CCCP(=O)(CCC)C1CCCCC1
dose: 100.0 mg/kg/injection, schedule: Q01DX001 (ip), vehicle: saline with Tween-80
  T/C: 99 % of control
dose: 200.0 mg/kg/injection, schedule: Q01DX001 (ip), vehicle: saline with Tween-80
  T/C: 98 % of control
dose: 400.0 mg/kg/injection, schedule: Q01DX001 (ip), vehicle: saline with Tween-80
  T/C: 86 % of control

## COC1OCC(NC(C)=O)C(OC(C)=O)C1OC(C)=O (stereo not drawn)
dose: 50.0 mg/kg/injection, schedule: Q01DX001 (sc), vehicle: saline
  T/C: 104 % of control
dose: 100.0 mg/kg/injection, schedule: Q01DX001 (sc), vehicle: saline
  T/C: 101 % of control
dose: 200.0 mg/kg/injection, schedule: Q01DX001 (sc), vehicle: saline
  T/C: 111 % of control
dose: 400.0 mg/kg/injection, schedule: Q01DX001 (sc), vehicle: saline
  T/C: 95 % of control

## CN(Cc1cnc2nc(N)nc(N)c2n1)c1ccc(C(=O)NC(CCC(=O)O)C(=O)O)cc1I (stereo not drawn)
dose: 2.5 mg/kg/injection, schedule: Q01DX009 (ip), vehicle: sodium bicarbonate
  T/C: 176 % of control
dose: 5.0 mg/kg/injection, schedule: Q01DX009 (ip), vehicle: sodium bicarbonate
  T/C: 175 % of control
dose: 10.0 mg/kg/injection, schedule: Q01DX009 (ip), vehicle: sodium bicarbonate
  T/C: 104 % of control

## CCn1c(N)c(N=O)c(=O)[nH]c1=O
dose: 100.0 mg/kg/injection, schedule: Q01DX009 (ip), vehicle: gum acacia
  T/C: 95 % of control
dose: 200.0 mg/kg/injection, schedule: Q01DX009 (ip), vehicle: gum acacia
  T/C: 99 % of control

## CCCN(CCC)S(=O)(=O)c1ccc(NC(=O)OC(c2ccccc2)(c2ccccc2)c2ccccc2)cc1
dose: 100.0 mg/kg/injection, schedule: Q01DX001 (ip), vehicle: saline
  T/C: 100 % of control
dose: 200.0 mg/kg/injection, schedule: Q01DX001 (ip), vehicle: saline
  T/C: 97 % of control
dose: 400.0 mg/kg/injection, schedule: Q01DX001 (ip), vehicle: saline
  T/C: 94 % of control

## CC(=O)Nc1ccc(Cc2[nH]c(=O)[nH]c(=O)c2Br)cc1
[1]
  T/C: 93 % of control
dose: 200.0 mg/kg/injection, schedule: Q01DX001 (ip), vehicle: Klucel (hydroxypropylcellulose) (HPC)
  T/C: 93 % of control
